Experimental data published in the NIST ThermoML archive (doi:10.1016/j.jct.2018.03.021).
Numbers after ± are expanded uncertainties.

How the values were obtained:
[1] = 100 kPa, Liquid, Vibrating tube method
[2] = molar heat capacity at constant pressure; settings: 100 kPa, Liquid, Extra sensitive DSC
[3] = xn = mol fraction of the nth substance listed; settings: 100 kPa, Liquid, Vibrating tube method, x2 = 0
[4] = molar heat capacity at constant pressure; xn = mol fraction of the nth substance listed; settings: 100 kPa, Liquid, Extra sensitive DSC, x2 = 0

Row | Compound | mass density ([1]; 298.15 K) | mass density ([1]; 308.15 K) | mass density ([1]; 318.15 K) | mass density ([1]; 328.15 K) | molar heat capacity at constant pressure ([2]; 298.8 K) | molar heat capacity at constant pressure ([2]; 308.7 K) | molar heat capacity at constant pressure ([2]; 318.6 K) | molar heat capacity at constant pressure ([2]; 328.5 K) | mass density ([3]; 298.15 K) | mass density ([3]; 308.15 K) | mass density ([3]; 318.15 K) | mass density ([3]; 328.15 K) | molar heat capacity at constant pressure ([4]; 298.8 K) | molar heat capacity at constant pressure ([4]; 308.7 K) | molar heat capacity at constant pressure ([4]; 318.6 K) | molar heat capacity at constant pressure ([4]; 328.5 K)
1 | CCCO [propan-1-ol] | 799.46 ± 0.71 kg/m3 | 791.36 ± 0.71 kg/m3 | 783.1 ± 0.71 kg/m3 | 774.63 ± 0.71 kg/m3 | 144.5 ± 5.6 J/K/mol | 150.9 ± 5.8 J/K/mol | 157.4 ± 6.1 J/K/mol | 164.5 ± 6.4 J/K/mol |  |  |  |  |  |  |  | 
2 | Cc1ccc(C(C)C)cc1 [1-(1-methylethyl)-4-methylbenzene] | 852.99 ± 0.71 kg/m3 | 844.94 ± 0.71 kg/m3 | 836.86 ± 0.71 kg/m3 | 828.75 ± 0.71 kg/m3 | 240.9 ± 9.3 J/K/mol | 244.8 ± 9.5 J/K/mol | 249.4 ± 9.7 J/K/mol | 254.6 ± 9.9 J/K/mol |  |  |  |  |  |  |  | 
3 | CCCO [propan-1-ol] + Cc1ccc(C(C)C)cc1 |  |  |  |  |  |  |  |  | 799.46 ± 0.71 kg/m3 | 791.36 ± 0.71 kg/m3 | 783.1 ± 0.71 kg/m3 | 774.63 ± 0.71 kg/m3 | 144.5 ± 5.6 J/K/mol | 150.9 ± 5.8 J/K/mol | 157.4 ± 6.1 J/K/mol | 164.5 ± 6.4 J/K/mol
